Measurements taken from patent US8741948B2, “Oral antimicrobial pharmaceutical compositions” (Cosmo Technologies Ltd., priority 2004, dated 2014).

How the values were obtained:
Assay in all cases: MIC evaluation on pathogenic bacterial strains
Type in all cases: cell-based
[1] = tested on: Salmonella typhi (ATCC 13331)
Excerpt: (§1) In particular, the efficacy of rifamicin SV was verified by means of an evaluation of the MIC (Minimum Inhibiting Concentration) on specific pathogenic bacterial strains, such as, for example, Escherichia coli, […], Proteus vulgaris, Pseudomonas aeruginosa, Salmonella typhi and Enterobacter cloacae as shown in the following Table A.

[2] = tested on: Enterobacter faecalis (ATCC 29212)
Excerpt: as §1

[3] = tested on: Escherichia coli (ATCC 30218)
Excerpt: as §1

[4] = tested on: Staphylococcus aureus (ATCC 25213)
Excerpt: as §1

[5] = tested on: Enterobacter cloacae (ATCC 17446431)
Excerpt: as §1

[6] = tested on: Pseudomonas aeruginosa (ATCC 27853)
Excerpt: as §1

[7] = tested on: Proteus vulgaris (ATCC 13315)
Excerpt: as §1

For rifamicin SV, the “MIC (Minimum Inhibiting Concentration)” value [1] was over 400 µg/mL, the “MIC (Minimum Inhibiting Concentration)” value [2] was 25 µg/mL and the “MIC (Minimum Inhibiting Concentration)” value [3] was 400 µg/mL. The “MIC (Minimum Inhibiting Concentration)” value [4] was under 0.4 µg/mL, the “MIC (Minimum Inhibiting Concentration)” value [5] was over 400 µg/mL and the “MIC (Minimum Inhibiting Concentration)” value [6] was over 400 µg/mL. For the same substance, the “MIC (Minimum Inhibiting Concentration)” value [7] was 400 µg/mL.
